Experimental data from PubChem BioAssay AID248 (DTP/NCI, 2004).
Inconclusive results and toxic doses are left out. No stated cut-off is given here; in the data, active means T/C of 150% or more; inactive means T/C below 125%.

Tested on: L1210 leukemia ip in BDF1 mice, survival T/C
Assay: NCI In Vivo Anticancer Drug Screen. Data for tumor model L1210 Leukemia (intraperitoneal) in B6D2F1 (BDF1) mice
Settings: endpoint: mean survival time, higher = longer survival
How it was run: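 Tumor was transplanted into mice, which were then dosed with test compound or vehicle alone. Survival was recorded for each group, and the treated figure was expressed relative to the control figure.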

[1] = dose: 100.0 mg/kg/injection, schedule: Q01DX009 (ip), vehicle: Klucel (hydroxypropylcellulose) (HPC)
[2] = dose: 200.0 mg/kg/injection, schedule: Q01DX009 (ip), vehicle: Klucel (hydroxypropylcellulose) (HPC)
[3] = dose: 400.0 mg/kg/injection, schedule: Q01DX009 (ip), vehicle: Klucel (hydroxypropylcellulose) (HPC)
[4] = dose: 100.0 mg/kg/injection, schedule: Q01DX001 (ip), vehicle: saline
[5] = dose: 200.0 mg/kg/injection, schedule: Q01DX001 (ip), vehicle: saline
[6] = dose: 400.0 mg/kg/injection, schedule: Q01DX001 (ip), vehicle: saline

Measured: T/C

O=[N+]([O-])c1ccc(N=Cc2ccc(Cl)cc2Cl)c(O)c1
inactive: dose: 100.0 mg/kg/injection, schedule: Q04DX002 (ip), vehicle: saline with Tween-80 86 % of control | dose: 200.0 mg/kg/injection, schedule: Q04DX002 (ip), vehicle: saline with Tween-80 120 % of control | dose: 400.0 mg/kg/injection, schedule: Q04DX002 (ip), vehicle: saline with Tween-80 99 % of control

CC(=O)N(c1ccccc1)c1nc(/C=N\NC(N)=S)cs1
inactive: [1] 105 % of control | [2] 106 % of control | [3] 100 % of control

Cc1cccc(C)c1SSc1c(C)cccc1C
inactive: dose: 50.0 mg/kg/injection, schedule: Q04DX002 (ip), vehicle: other 96 % of control | dose: 100.0 mg/kg/injection, schedule: Q04DX002 (ip), vehicle: other 108 % of control | dose: 200.0 mg/kg/injection, schedule: Q04DX002 (ip), vehicle: other 101 % of control

CCCCCCc1ccc2c(c1)CC(CCCC)C2 (configuration not stated)
inactive: dose: 50.0 mg/kg/injection, schedule: Q01DX001 (ip), vehicle: saline 101 % of control | [4] 104 % of control | [5] 98 % of control | [6] 101 % of control

COc1cc(Cl)ccc1NC(=O)Oc1ccc(C(=O)OCc2ccccc2)cc1
inactive: dose: 100.0 mg/kg/injection, schedule: Q01DX009 (ip), vehicle: saline 103 % of control | dose: 200.0 mg/kg/injection, schedule: Q01DX009 (ip), vehicle: saline 97 % of control | dose: 400.0 mg/kg/injection, schedule: Q01DX009 (ip), vehicle: saline 111 % of control

Cc1ccc(S(=O)(=O)N/N=C/C=C\C=N\NS(=O)(=O)c2ccc(C)cc2)cc1
inactive: [1] 98 % of control | [2] 96 % of control | [3] 90 % of control

CCCCC(=O)N/N=C/c1ccc([N+](=O)[O-])cc1
inactive: [4] 95 % of control | [5] 89 % of control | [6] 94 % of control
